Assay results as given in US5328902A, “7-(substituted)-9-[(substituted glycyl)amido]-6-demethyl-6-deoxytetracyclines” (American Cyanamid Co., priority 1992, dated 1994).

How the values were obtained:
Assay type in all cases: cell-based
[1] = test system: E. coli UBMS 89-2 Tet sens.; assay: MIC, agar dilution; settings: E. coli UBMS 89-2 Tet sens.
E. coli BAJ9003 IMP MUT = assay: microbe, parasite or virus in culture; settings: E. coli BAJ9003 IMP MUT
S. aureus UBMS 90-3 = assay: MIC, agar dilution; settings: S. aureus UBMS 90-3
E. coli J3272 Tet C = assay: microbe, parasite or virus in culture; settings: E. coli J3272 Tet C
S. aureus ROSE (MP) = assay: MIC, agar dilution; settings: S. aureus ROSE (MP)
S. aureus UBMS 88-4 = assay: MIC, agar dilution; settings: S. aureus UBMS 88-4
E. coli ATCC 25922 = assay: MIC, agar dilution; settings: E. coli ATCC 25922
E. coli UBMS 90-4 Tet M = assay: microbe, parasite or virus in culture; settings: E. coli UBMS 90-4 Tet M
S. mariescens FPOR 8733 = assay: MIC, agar dilution
[2] = test system: S. hemolyticus AVHAH 88-3; assay: MIC, agar dilution; settings: S. hemolyticus AVHAH 88-3
[3] = test system: E. coli MC 4100 Tet sens.; assay: MIC, agar dilution
E. coli J2175 = assay: MIC, agar dilution; settings: E. coli J2175
S. aureus IVES 2943 = assay: MIC, agar dilution; settings: S. aureus IVES 2943
[4] = test system: S. aureus UBMS 88-7 Tet K; assay: microbe, parasite or virus in culture; settings: S. aureus UBMS 88-7 Tet K
E. coli UBMS 88-1 Tet B = assay: microbe, parasite or virus in culture; settings: E. coli UBMS 88-1 Tet B; 18 hours at 35° C.
S. aureus IVES 1 983 = assay: MIC, agar dilution; settings: S. aureus IVES 1 983
[5] = test system: S. aureus UBMS 90-1 Tet M; assay: microbe, parasite or virus in culture; settings: S. aureus UBMS 90-1 Tet M
Enterococcus 12201 = assay: MIC, agar dilution; settings: Enterococcus 12201
S. aureus ATCC 29213 = assay: MIC, agar dilution; settings: S. aureus ATCC 29213
S. aureus SMITH (MP) = assay: MIC, agar dilution; settings: S. aureus SMITH (MP)
[6] = test system: S. aureus UBMS 88-5 Tet M; assay: microbe, parasite or virus in culture; settings: S. aureus UBMS 88-5 Tet M
E. coli UBMS 89-1 Tet M = assay: microbe, parasite or virus in culture; settings: E. coli UBMS 89-1 Tet M
E. coli UBMS 90-5 = assay: MIC, agar dilution
[7] = test system: Ps. acruginosa ATCC 27853; assay: MIC, agar dilution; settings: Ps. acruginosa ATCC 27853
[8] = test system: S. aureus UBMS 90-2 Tet M; assay: microbe, parasite or virus in culture; settings: S. aureus UBMS 90-2 Tet M
E. coli J3272 Tet D = assay: microbe, parasite or virus in culture; settings: E. coli J3272 Tet D
E. coli PRP1 Tet A = assay: microbe, parasite or virus in culture; settings: E. coli PRP1 Tet A
E. coli #311 (MP) = assay: MIC, agar dilution; settings: E. coli #311 (MP)
E. faecalis ATCC 29212 = assay: MIC, agar dilution; settings: E. faecalis ATCC 29212
[9] = test system: E. coli MC 4100 TNIOC Tet B; assay: microbe, parasite or virus in culture; settings: E. coli MC 4100 TNIOC Tet B
E. coli J3272 Tet sens. = assay: MIC, agar dilution
S. aureus NEMC 8769 = assay: MIC, agar dilution; settings: S. aureus NEMC 8769
[10] = test system: tetracycline sensitive and resistant Gram-positive and Gram-negative bacteria; assay: In vitro antibacterial activity, summary in words of Table I

717S-(7alpha,10aalpha)]-N-[9-(Aminocarbonyl)4,7-bis(dimethylamino)-5,5a,6,6a,7,10,10a,12-octahydro-1,8,10a,11-tetrahydroxy-10,12-dioxo-2-naphthacenyl]-4-methyl-l-piperazineacetamide dihydrochloride
MIC [1]: 8 µg/mL
MIC (E. coli BAJ9003 IMP MUT): 0.5 µg/mL
MIC (S. aureus UBMS 90-3): 2 µg/mL
MIC (E. coli J3272 Tet C): 8 µg/mL
MIC (S. aureus ROSE (MP)): > 32 µg/mL
MIC (S. aureus UBMS 88-4): 2 µg/mL
MIC (E. coli ATCC 25922): 8 µg/mL
MIC (E. coli UBMS 90-4 Tet M): 8 µg/mL
MIC (S. mariescens FPOR 8733): > 32 µg/mL
MIC [2]: 16 µg/mL
MIC [3]: 1 µg/mL
MIC (E. coli J2175): 8 µg/mL
MIC (S. aureus IVES 2943): > 32 µg/mL
MIC [4]: 16 µg/mL
MIC (E. coli UBMS 88-1 Tet B): 8 µg/mL
MIC (S. aureus IVES 1 983): > 32 µg/mL
MIC [5]: 8 µg/mL
MIC (Enterococcus 12201): 2 µg/mL
MIC (S. aureus ATCC 29213): 2 µg/mL
MIC (S. aureus SMITH (MP)): 0.5 µg/mL
MIC [6]: 4 µg/mL
MIC (E. coli UBMS 89-1 Tet M): 8 µg/mL
MIC (E. coli UBMS 90-5): 8 µg/mL
MIC [7]: > 32 µg/mL
MIC [8]: 2 µg/mL
MIC (E. coli J3272 Tet D): 4 µg/mL
MIC (E. coli PRP1 Tet A): 16 µg/mL
MIC (E. coli #311 (MP)): 8 µg/mL
MIC (E. faecalis ATCC 29212): 1 µg/mL

[4S-(4alpha,12aalpha)]-9-[(Bromoacetyl)amino]-4,7-bis(dimethylamino)-1,4,4a,5,5a,6, 11,12a-octahydro-3,10,12,12a-tetrahydroxy-1, 11-dioxo-2-naphthacenecarboxamide dihydrochloride
MIC [1]: 32 µg/mL
MIC (S. aureus UBMS 90-3): 0.5 µg/mL
MIC [9]: > 32 µg/mL
MIC (E. coli J3272 Tet C): > 32 µg/mL
MIC (E. coli ATCC 25922): 16 µg/mL
MIC (E. coli J3272 Tet sens.): 16 µg/mL
MIC (S. mariescens FPOR 8733): > 32 µg/mL
MIC (E. coli J2175): 32 µg/mL
MIC (S. aureus IVES 1 983): 4 µg/mL
MIC [5]: 1 µg/mL
MIC (Enterococcus 12201): 1 µg/mL
MIC (S. aureus ATCC 29213): 0.5 µg/mL
MIC [6]: 1 µg/mL
MIC (E. coli UBMS 89-1 Tet M): 4 µg/mL
MIC (E. coli UBMS 90-5): 16 µg/mL
MIC [7]: > 32 µg/mL
MIC (E. coli J3272 Tet D): 32 µg/mL
MIC (E. coli PRP1 Tet A): > 32 µg/mL
MIC (E. coli #311 (MP)): 8 µg/mL
MIC (E. faecalis ATCC 29212): 0.5 µg/mL
MIC (S. aureus NEMC 8769): 0.12 µg/mL

[4S-(4alpha,12aalpha)]-4,7-bis(dimethylamino)-1,4,4a,5,5a,6,11,12a-octahydro-3,10, 12,12a-tetrahydroxy-1,11-dioxo-9-[[[(2pyridinylmethyl)amino]acetyl]amino-2-naphthacenecarboxamide dihydrochloride
MIC [1]: 16 µg/mL
MIC (E. coli BAJ9003 IMP MUT): 1 µg/mL
MIC (S. aureus UBMS 90-3): 4 µg/mL
MIC (E. coli J3272 Tet C): 16 µg/mL
MIC (S. aureus UBMS 88-4): 8 µg/mL
MIC (E. coli ATCC 25922): 8 µg/mL
MIC (E. coli UBMS 90-4 Tet M): 8 µg/mL
MIC (S. mariescens FPOR 8733): > 32 µg/mL
MIC [2]: 16 µg/mL
MIC [3]: 2 µg/mL
MIC (E. coli J2175): 16 µg/mL
MIC (S. aureus IVES 2943): > 32 µg/mL
MIC [4]: 32 µg/mL
MIC (E. coli UBMS 88-1 Tet B): 16 µg/mL
MIC (S. aureus IVES 1 983): > 32 µg/mL
MIC [5]: 8 µg/mL
MIC (Enterococcus 12201): 4 µg/mL
MIC (S. aureus ATCC 29213): 8 µg/mL
MIC (S. aureus SMITH (MP)): 4 µg/mL
MIC [6]: 8 µg/mL
MIC (E. coli UBMS 89-1 Tet M): 8 µg/mL
MIC (E. coli UBMS 90-5): 16 µg/mL
MIC [7]: > 32 µg/mL
MIC [8]: 8 µg/mL
MIC (E. coli J3272 Tet D): 8 µg/mL
MIC (E. coli PRP1 Tet A): 32 µg/mL
MIC (E. coli #311 (MP)): 8 µg/mL
MIC (E. faecalis ATCC 29212): 2 µg/mL
MIC (S. aureus NEMC 8769): 8 µg/mL

CN(C)c1cc(NC(=O)C2CCCN2C(=O)C(F)(F)F)c(O)c2c1CC1CC3[C@H](N(C)C)C(O)=C(C(N)=O)C(=O)[C@@]3(O)C(O)=C1C2=O.Cl.Cl (stereo partly drawn) [A, [7S-(7alpha,10aalpha)]-N-[9-(Aminocarbonyl)4,7-bis(dimethylamino)-5,5a,6,6a,7,10,10a, 12-octahydro-l,8,10a,ll-tetrahydroxy-10,12-dioxo-2-naphthacenyl]-l-(trifluoroacetyl)-2-pyrrolidinecarboxamide dihydrochloride]
MIC [1]: 8 µg/mL
MIC (E. coli BAJ9003 IMP MUT): 1 µg/mL
MIC (S. aureus UBMS 90-3): 1 µg/mL
MIC [9]: 8 µg/mL
MIC (E. coli J3272 Tet C): 8 µg/mL
MIC (S. aureus ROSE (MP)): 32 µg/mL
MIC (S. aureus UBMS 88-4): 4 µg/mL
MIC (E. coli ATCC 25922): 8 µg/mL
MIC (E. coli J3272 Tet sens.): 8 µg/mL
MIC (S. mariescens FPOR 8733): > 32 µg/mL
MIC [2]: 8 µg/mL
MIC (E. coli J2175): 8 µg/mL
MIC (S. aureus IVES 2943): 16 µg/mL
MIC [4]: 16 µg/mL
MIC (E. coli UBMS 88-1 Tet B): 8 µg/mL
MIC (S. aureus IVES 1 983): 16 µg/mL
MIC [5]: 8 µg/mL
MIC (S. aureus ATCC 29213): 4 µg/mL
MIC (S. aureus SMITH (MP)): 2 µg/mL
MIC [6]: 4 µg/mL
MIC (E. coli UBMS 89-1 Tet M): 8 µg/mL
MIC (E. coli UBMS 90-5): 4 µg/mL
MIC [7]: > 32 µg/mL
MIC [8]: 2 µg/mL
MIC (E. coli J3272 Tet D): 2 µg/mL
MIC (E. coli PRP1 Tet A): > 32 µg/mL
MIC (E. coli #311 (MP)): 8 µg/mL
MIC (E. faecalis ATCC 29212): 2 µg/mL
MIC (S. aureus NEMC 8769): 1 µg/mL

CN(C)c1cc(NC(=O)CNCC2CC2)c(O)c2c1CC1CC3C(N(C)C)C(O)=C(C(N)=O)C(=O)C3(O)C(O)=C1C2=O.Cl.Cl (stereo not drawn) [K]
MIC [1]: 0.5 µg/mL
MIC (E. coli BAJ9003 IMP MUT): 0.12 µg/mL
MIC (S. aureus UBMS 90-3): 0.5 µg/mL
activity against E. coli tetA, E. coli tetC and E. coli tetD [10]: good activity
in vitro activity against tetracycline resistant strains containing tetM and tetB resistance determinants ([10]; S. aureus UBMS 88-5, 90-1, 90-2, E. coli UBMS 89-1, 90-4, 88-1, TN10C tetB): excellent
activity against recently isolated bacteria from clinical sources compared with minocycline ([10]; clinical isolates): superior to that of minocycline
activity against susceptible strains compared with minocycline ([10]; susceptible strains): equallyas effective as minocycline
MIC (S. aureus UBMS 88-4): 0.5 µg/mL
MIC (S. mariescens FPOR 8733): 8 µg/mL
MIC [3]: 0.12 µg/mL
MIC (S. aureus IVES 2943): 8 µg/mL
MIC [4]: 4 µg/mL
MIC (E. coli UBMS 88-1 Tet B): 0.5 µg/mL
MIC (S. aureus IVES 1 983): 8 µg/mL
MIC [5]: 1 µg/mL
MIC (S. aureus ATCC 29213): 1 µg/mL
MIC (S. aureus SMITH (MP)): 0.5 µg/mL
MIC [6]: 1 µg/mL
MIC (E. coli UBMS 89-1 Tet M): 0.5 µg/mL
MIC [7]: 16 µg/mL
MIC [8]: 0.5 µg/mL
MIC (E. coli J3272 Tet D): 0.25 µg/mL
MIC (E. coli PRP1 Tet A): 4 µg/mL
MIC (S. aureus NEMC 8769): 1 µg/mL

[7S-(7alpha,10aalpha)]-N-[9-(Aminocarbonyl)-4,7-bis(dimethylamino)-5,5a,6,6a,7,10,10a,12-octahydro-1,8,10a,11-tetrahydroxy-10,12-dioxo-2-naphthacenyl]-4-thiomorpholineacetamide dihydrochloride [F]
MIC [1]: > 32 µg/mL
MIC (S. aureus UBMS 90-3): 1 µg/mL
MIC [9]: > 32 µg/mL
MIC (E. coli J3272 Tet C): > 32 µg/mL
MIC (S. aureus ROSE (MP)): 8 µg/mL
MIC (S. aureus UBMS 88-4): 1 µg/mL
MIC (E. coli ATCC 25922): 32 µg/mL
MIC (E. coli J3272 Tet sens.): > 32 µg/mL
MIC (E. coli UBMS 90-4 Tet M): > 32 µg/mL
MIC (S. mariescens FPOR 8733): > 32 µg/mL
MIC [2]: 4 µg/mL
MIC (E. coli J2175): > 32 µg/mL
MIC (S. aureus IVES 2943): 4 µg/mL
MIC [4]: 4 µg/mL
MIC (E. coli UBMS 88-1 Tet B): > 32 µg/mL
MIC (S. aureus IVES 1 983): 4 µg/mL
MIC [5]: 1 µg/mL
MIC (Enterococcus 12201): 1 µg/mL
MIC (S. aureus ATCC 29213): 1 µg/mL
MIC (E. coli UBMS 89-1 Tet M): > 32 µg/mL
MIC (E. coli UBMS 90-5): > 32 µg/mL
MIC [7]: > 32 µg/mL
MIC [8]: 1 µg/mL
MIC (E. coli J3272 Tet D): 16 µg/mL
MIC (E. coli PRP1 Tet A): > 32 µg/mL
MIC (E. coli #311 (MP)): > 32 µg/mL
MIC (E. faecalis ATCC 29212): 0.25 µg/mL
